According to patent publication US20100041089A1, “IMPROVED METHOD FOR DETECTING CHEMICAL […]” (priority 2006, published 2010):

Test system: yeast genes (expressed mRNA)
Assay: DNA chip measurement of expressed mRNA of yeast genes after culture with a toxic chemical substance
Format: cell-based, Saccharomyces cerevisiae S288C
Procedure: Yeast (Saccharomyces cerevisiae S288C (a SUC2mal mel gap2 CUP1)) were cultured at 25° C. on YPD medium (yeast extract 1%, polypeptone 2%, glucose 2%). One of toxic chemical substances was added to the cell at logarithmic growth phase, and the cell was further cultured for two hours. Cell was cultured without any chemical substance in the same condition, and was used as a control. Concentrations of the chemical substances were defined to inhibit the growth of the yeast but not lead to death.
After the completion of cultivation, the culture was centrifuged to collect the cells. To the cells, sodium acetate buffer (50 mM sodium acetate, 10 mM EDTA, 1% SDS) was added, and the mixture was shaken at 65° C. for five minutes, followed by returning to room temperature, and obtaining the supernatant, which procedure was repeated two times. To the supernatant, ½ amount of a solution of phenol/chloroform (1:1) was added, and the mixture was centrifuged to give a supernatant, an equal amount of chloroform was added, and the mixture was centrifuged to give a supernatant. To the supernatant, an equal amount of isopropanol containing 0.3 M sodium acetate was added, and the mixture was allowed to stand at room temperature for 30 minutes, after which the mixture was centrifuged to give sediment of the whole RNAs. Seventy % ethanol was added to the sediment, and the mixture was again centrifuged to give sediment, which was then dried and dissolved in water. mRNA was isolated from the whole RNAs as followings. In view of the fact that a poly A chain is attached to the 3′ terminus of mRNA, a polynucleotide having a poly T structure which was immobilized on the surface of latex beads was used to trap the mRNA, and then the mRNA was washed and eluted with spine column (Oligotex-dT30<Super>mRNA Purification Kit, Takara). Reverse transcription of the mRNA was conducted with a reverse transcriptase (Super Script II Reverse Transcriptase; catalogue No. 18064-014, GibcoBRL) using fluorescence-labeled nucleotides to give cDNAs that were introduced with Cy3-dUTP or Cy5-dUTP during the reverse transcription.
The labeled cDNAs were dissolved in TE buffer (10 mM Tris-HCl/1 mM EDTA, pH 8.0), and the solution was dropped on the DNA chip containing the whole genes of yeast (DNA Chip Research Inc. Japan) so that the cDNAs were hybridized on the DNA chip at 65° C. for over 12 hours. The fluoresces intensity of the DNA chip was read with a scanner, and the ratio relative to the fluorescence intensity resulting from the absence of chemical substance was estimated as the following, which is shown in Tables 1 to 9.
In the Tables, “Intensity” indicated in the rightmost column is a value of the level of expressed mRNA of each gene in control cells as divided by the average level of the expressions of the whole genes. A gene of which mRNA level is lower in control, and is higher in cases of addition of chemical substance, is especially useful in the detection of toxic substances.
Here, when a ratio of an amount of mRNA expressed in the presence of the chemical substance to an amount of mRNA expressed in the absence of the chemical substance is two or more, then it is considered significant.

Compound: CN(C)C(=S)SSC(=S)N(C)C [(10), Tetramethylthiuram disulfide]
- The level of expressed mRNA in the presence of chemical substance/The level of expressed mRNA in the absence of chemical substance (yeast gene YFL010C, cultured two hours with substance): 1.4
- The level of expressed mRNA in the presence of chemical substance/The level of expressed mRNA in the absence of chemical substance (yeast gene YFL024C, cultured two hours with substance): 0.5
- The level of expressed mRNA in the presence of chemical substance/The level of expressed mRNA in the absence of chemical substance (yeast gene YFL032W, cultured two hours with substance): 0.6
- The level of expressed mRNA in the presence of chemical substance/The level of expressed mRNA in the absence of chemical substance (yeast gene YFL056C): 31.3
- The level of expressed mRNA in the presence of chemical substance/The level of expressed mRNA in the absence of chemical substance (yeast gene YFL056C, cultured for two hours with substance): 31.3
- The level of expressed mRNA in the presence of chemical substance/The level of expressed mRNA in the absence of chemical substance (yeast gene YFL057C): 46.1
- The level of expressed mRNA in the presence of chemical substance/The level of expressed mRNA in the absence of chemical substance (yeast gene YFL057C, cultured for two hours with substance): 46.1
- The level of expressed mRNA in the presence of chemical substance/The level of expressed mRNA in the absence of chemical substance (yeast gene YGL037C, cultured two hours with substance): 1.6
- The level of expressed mRNA in the presence of chemical substance/The level of expressed mRNA in the absence of chemical substance (yeast gene YGL046W, cultured two hours with substance): 4.5
- The level of expressed mRNA in the presence of chemical substance/The level of expressed mRNA in the absence of chemical substance (yeast gene YGL047W, cultured two hours with substance): 5.7
- The level of expressed mRNA in the presence of chemical substance/The level of expressed mRNA in the absence of chemical substance (yeast gene YGL053W, cultured two hours with substance): 2.4
- The level of expressed mRNA in the presence of chemical substance/The level of expressed mRNA in the absence of chemical substance (yeast gene YGL121C, cultured two hours with substance): 15.0
- The level of expressed mRNA in the presence of chemical substance/The level of expressed mRNA in the absence of chemical substance (yeast gene YGL136C, cultured two hours with substance): 1.0
- The level of expressed mRNA in the presence of chemical substance/The level of expressed mRNA in the absence of chemical substance (yeast gene YGL184C): 66.8
- The level of expressed mRNA in the presence of chemical substance/The level of expressed mRNA in the absence of chemical substance (yeast gene YGL193C, cultured two hours with substance): 1.0
- The level of expressed mRNA in the presence of chemical substance/The level of expressed mRNA in the absence of chemical substance (yeast gene YGL199C, cultured two hours with substance): 0.1
- The level of expressed mRNA in the presence of chemical substance/The level of expressed mRNA in the absence of chemical substance (yeast gene YGR101W, cultured two hours with substance): 1.4
- The level of expressed mRNA in the presence of chemical substance/The level of expressed mRNA in the absence of chemical substance (yeast gene YGR110W, cultured two hours with substance): 4.8
- The level of expressed mRNA in the presence of chemical substance/The level of expressed mRNA in the absence of chemical substance (yeast gene YGR130C, cultured two hours with substance): 1.5
- The level of expressed mRNA in the presence of chemical substance/The level of expressed mRNA in the absence of chemical substance (yeast gene YGR142W, cultured two hours with substance): 12.2
- The level of expressed mRNA in the presence of chemical substance/The level of expressed mRNA in the absence of chemical substance (yeast gene YGR154C, cultured two hours with substance): 9.1
- The level of expressed mRNA in the presence of chemical substance/The level of expressed mRNA in the absence of chemical substance (yeast gene YGR213C): 6.9
- The level of expressed mRNA in the presence of chemical substance/The level of expressed mRNA in the absence of chemical substance (yeast gene YGR221C, cultured two hours with substance): 0.7
- The level of expressed mRNA in the presence of chemical substance/The level of expressed mRNA in the absence of chemical substance (yeast gene YHL040C (detoxification protein gene)): 11.3
- The level of expressed mRNA in the presence of chemical substance/The level of expressed mRNA in the absence of chemical substance (yeast gene YHL040C (transport facilitation protein gene)): 11.3
- The level of expressed mRNA in the presence of chemical substance/The level of expressed mRNA in the absence of chemical substance (yeast gene YHL047C (detoxification protein gene)): 11.9
- The level of expressed mRNA in the presence of chemical substance/The level of expressed mRNA in the absence of chemical substance (yeast gene YHL047C (transport facilitation protein gene)): 11.9
- The level of expressed mRNA in the presence of chemical substance/The level of expressed mRNA in the absence of chemical substance (yeast gene YHR029C, cultured two hours with substance): 8.6
- The level of expressed mRNA in the presence of chemical substance/The level of expressed mRNA in the absence of chemical substance (yeast gene YHR071W): 7.2
- The level of expressed mRNA in the presence of chemical substance/The level of expressed mRNA in the absence of chemical substance (yeast gene YHR116W, cultured two hours with substance): 2.7
- The level of expressed mRNA in the presence of chemical substance/The level of expressed mRNA in the absence of chemical substance (yeast gene YHR138C, cultured two hours with substance): 4.6
- The level of expressed mRNA in the presence of chemical substance/The level of expressed mRNA in the absence of chemical substance (yeast gene YHR139C): 46.6
- The level of expressed mRNA in the presence of chemical substance/The level of expressed mRNA in the absence of chemical substance (yeast gene YHR199C, cultured two hours with substance): 6.0
- The level of expressed mRNA in the presence of chemical substance/The level of expressed mRNA in the absence of chemical substance (yeast gene YIL023C, cultured two hours with substance): 1.6
- The level of expressed mRNA in the presence of chemical substance/The level of expressed mRNA in the absence of chemical substance (yeast gene YIL024C, cultured two hours with substance): 1.8
- The level of expressed mRNA in the presence of chemical substance/The level of expressed mRNA in the absence of chemical substance (yeast gene YIL041W, cultured two hours with substance): 1.4
- The level of expressed mRNA in the presence of chemical substance/The level of expressed mRNA in the absence of chemical substance (yeast gene YIL087C, cultured two hours with substance): 1.8
- The level of expressed mRNA in the presence of chemical substance/The level of expressed mRNA in the absence of chemical substance (yeast gene YIL102C, cultured two hours with the chemical substance): 0.3
- The level of expressed mRNA in the presence of chemical substance/The level of expressed mRNA in the absence of chemical substance (yeast gene YIL117C, cultured two hours with substance): 3.5
- The level of expressed mRNA in the presence of chemical substance/The level of expressed mRNA in the absence of chemical substance (yeast gene YIL167W): 12.7
- The level of expressed mRNA in the presence of chemical substance/The level of expressed mRNA in the absence of chemical substance (yeast gene YIL168W): 19.3
- The level of expressed mRNA in the presence of chemical substance/The level of expressed mRNA in the absence of chemical substance (yeast gene YIR038C (detoxification protein gene)): 4.5
- The level of expressed mRNA in the presence of chemical substance/The level of expressed mRNA in the absence of chemical substance (yeast gene YJL020C, cultured two hours with substance): 1.0
- The level of expressed mRNA in the presence of chemical substance/The level of expressed mRNA in the absence of chemical substance (yeast gene YJL057C, cultured two hours with substance): 6.1
- The level of expressed mRNA in the presence of chemical substance/The level of expressed mRNA in the absence of chemical substance (yeast gene YJL066C, cultured two hours with substance): 2.1
- The level of expressed mRNA in the presence of chemical substance/The level of expressed mRNA in the absence of chemical substance (yeast gene YJL082W, cultured two hours with substance): 2.9
- The level of expressed mRNA in the presence of chemical substance/The level of expressed mRNA in the absence of chemical substance (yeast gene YJL100W, cultured two hours with the chemical substance): 2.7
- The level of expressed mRNA in the presence of chemical substance/The level of expressed mRNA in the absence of chemical substance (yeast gene YJL108C, cultured two hours with substance): 0.7
- The level of expressed mRNA in the presence of chemical substance/The level of expressed mRNA in the absence of chemical substance (yeast gene YJL149W, cultured two hours with substance): 3.8
- The level of expressed mRNA in the presence of chemical substance/The level of expressed mRNA in the absence of chemical substance (yeast gene YJL151C, cultured two hours with substance): 1.6
